Laboratory results reported in PMC8617031, “Development of a BCL-xL and BCL-2 dual degrader with improved anti-leukemic activity,” (Nature Communications, 2021).
Where “and” joins values, the source holds several entries; their conditions need not be identical. Equal entries are not always repeated.

Biological target: T1, BCL-xL/PROTAC/VHL-ELOC-ELOB (VCB) ternary complex (Homo sapiens, UniProt P40337+Q07817)
T1 construct: pGEX-6P-1-VHL(54-213) (pDL2200) was constructed through Gibson assembly method; made in house; host or cells: bacterial culture (LB broth, IPTG induction)
T1 sequence (Q07817 1-212 limits assumed): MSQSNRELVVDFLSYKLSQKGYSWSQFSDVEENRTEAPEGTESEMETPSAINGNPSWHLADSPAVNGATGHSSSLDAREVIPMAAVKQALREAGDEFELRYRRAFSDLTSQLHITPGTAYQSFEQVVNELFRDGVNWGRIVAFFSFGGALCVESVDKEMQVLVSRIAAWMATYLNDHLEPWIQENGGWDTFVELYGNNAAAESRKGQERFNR
T1 sequence (P40337 54-213 limits assumed): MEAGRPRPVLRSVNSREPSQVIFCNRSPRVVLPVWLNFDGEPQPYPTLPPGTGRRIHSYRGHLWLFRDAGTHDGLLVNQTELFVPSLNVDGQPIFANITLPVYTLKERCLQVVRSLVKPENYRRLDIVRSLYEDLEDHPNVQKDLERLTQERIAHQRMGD
T1 sequence (Q15369 17-112 partner limits assumed): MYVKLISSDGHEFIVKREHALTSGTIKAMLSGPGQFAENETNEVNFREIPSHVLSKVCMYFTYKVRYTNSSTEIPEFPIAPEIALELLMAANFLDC
T1 sequence (Q15370 whole entry partner): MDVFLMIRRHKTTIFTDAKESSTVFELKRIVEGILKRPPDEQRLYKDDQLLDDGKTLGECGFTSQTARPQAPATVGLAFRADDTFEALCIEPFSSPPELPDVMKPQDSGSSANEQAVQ
Assay: AlphaLISA ternary complex formation, cell-free, BCL-xL
Assay type: binding
Description: AlphaLISA assay was used to evaluate the in vitro ternary complex formation between target proteins (BCL-xL or BCL-2), PROTAC and E3 ligase (VCB complex). In each well, 5 nM His-tagged BCL-xL or BCL-2 proteins and 5 nM GST-VCB complex was incubated with varying concentrations of compounds in fourfold serial dilutions, to a final volume of 40 µl in a 96-well PCR plate. After incubation at room temperature for 30 min, 5 µl alpha glutathione-donor beads (Cat. No. 6765300, PerkinElmer) were added to each well (20 µg/ml final concentration) and incubated for another 15 min. Thereafter, 5 µL 6× His-acceptor beads were added to each well (20 µg/ml final concentration) and incubated for an additional 45 min at room temperature. Thereafter, 17 µl of each sample was transferred in adjacent wells of a 384-well proxy plate, and the plate was scanned using the Alpha program on Biotek’s Synergy Neo2 multimode plate reader. The data were expressed as average AlphaLISA signal and plotted against different concentrations of compounds using GraphPad Prism 9 software.

[1] = compound 0.19 nM, Fig. 3e raw Alpha reads
[2] = compound 0.76 nM, Fig. 3e raw Alpha reads
[3] = compound 3.05 nM, Fig. 3e raw Alpha reads
[4] = compound 12.21 nM, Fig. 3e raw Alpha reads
[5] = compound 195.31 nM, Fig. 3e raw Alpha reads
[6] = compound 781.25 nM, Fig. 3e raw Alpha reads
[7] = compound 3125 nM, Fig. 3e raw Alpha reads
[8] = compound 12500 nM, Fig. 3e raw Alpha reads
[9] = compound 50000 nM, Fig. 3e raw Alpha reads, 2 technical replicates

| AlphaLISA signal, BCL-xL/PROTAC/VCB [1] | AlphaLISA signal, BCL-xL/PROTAC/VCB [2] | AlphaLISA signal, BCL-xL/PROTAC/VCB [3] | AlphaLISA signal, BCL-xL/PROTAC/VCB [4] | AlphaLISA signal, BCL-xL/PROTAC/VCB [5] | AlphaLISA signal, BCL-xL/PROTAC/VCB [6] | AlphaLISA signal, BCL-xL/PROTAC/VCB [7] | AlphaLISA signal, BCL-xL/PROTAC/VCB [8] | AlphaLISA signal, BCL-xL/PROTAC/VCB [9] | SMILES | further results |
| --- | --- | --- | --- | --- | --- | --- | --- | --- | --- | --- |
| 12691 and 9324 | 14711 and 17995 | 28316 and 16721 | 27882 and 17689 | 22883 and 13939 | 12216 and 14015 | 19424 and 16133 | 17056 and 15505 | 14548 and 12360 | CC1(C)CCC(c2ccc(Cl)cc2)=C(CN2CCN(c3ccc(C(=O)NS(=O)(=O)c4ccc(N[C@H](CCN5CCOCC5)CSc5ccccc5)c(S(=O)(=O)C(F)(F)F)c4)cc3)CC2)C1 [ABT263, navitoclax] | – |
| 24660 and 20115 | 36507 and 38317 | 66449 and 60221 | 409606 and 406374 | 1443448 and 1418663 | 1065855 and 975587 | 557160 and 572089 | 200468 and 154034 | 37331 and 41699 | Cc1ncsc1-c1ccc([C@H](C)NC(=O)[C@@H]2C[C@@H](O)CN2C(=O)[C@@H](NC(=O)CCCCCC(=O)N2CCN(CC[C@H](CSc3ccccc3)Nc3ccc(S(=O)(=O)NC(=O)c4ccc(N5CCN(CC6=C(c7ccc(Cl)cc7)CCC(C)(C)C6)CC5)cc4)cc3S(=O)(=O)C(F)(F)F)CC2)C(C)(C)C)cc1 [DT2216] | AlphaLISA signal, BCL-xL/PROTAC/VCB (compound 0.191 nM, Fig. 2c raw Alpha reads): 16719 and 10405; AlphaLISA signal, BCL-xL/PROTAC/VCB (compound 0.763 nM, Fig. 2c raw Alpha reads): 18311 and 16968; AlphaLISA signal, BCL-xL/PROTAC/VCB (compound 3.052 nM, Fig. 2c raw Alpha reads): 25910 and 22328; AlphaLISA signal, BCL-xL/PROTAC/VCB (compound 12.207 nM, Fig. 2c raw Alpha reads): 86818 and 83277; AlphaLISA signal, BCL-xL/PROTAC/VCB (compound 48.828 nM, Fig. 2c raw Alpha reads): 487236 and 509576; AlphaLISA signal, BCL-xL/PROTAC/VCB (compound 48.83 nM, Fig. 3e raw Alpha reads): 1004765 and 1011127; AlphaLISA signal, BCL-xL/PROTAC/VCB (compound 195.31 nM, Fig. 2c raw Alpha reads): 1016591 and 916263; AlphaLISA signal, BCL-xL/PROTAC/VCB (compound 781.25 nM, Fig. 2c raw Alpha reads): 880317 and 910855; AlphaLISA signal, BCL-xL/PROTAC/VCB (compound 3125 nM, Fig. 2c raw Alpha reads): 660864 and 590073; AlphaLISA signal, BCL-xL/PROTAC/VCB (compound 12500 nM, Fig. 2c raw Alpha reads): 241490 and 226854; AlphaLISA signal, BCL-xL/PROTAC/VCB (compound 50000 nM, Fig. 2c raw Alpha reads): 34465 and 29535; AlphaLISA signal, BCL-xL/PROTAC/VCB (compound 200000 nM, Fig. 2c raw Alpha reads, 2 technical replicates): 19406 and 20996 |
